Two molecules from patent US12070452B2, “Compounds targeting HSP110 protein for cancer treatment” (INSERM (Institut National de la Santé et de la Recherche …, priority 2018, dated 2024) can be followed below.

Entries after “also recorded” stand apart in the source; their conditions may differ.

One assay addresses T1, HSP110:STAT3 complex (Homo sapiens, UniProt Q92598).
T1 construct: disrupting HSP110:STAT3 complex within the cell using human colorectal SW480 cancer cells; endogenous in cells; host or cells: SW480 cells carrying control shRNA (shCtrl); sh110 cells as HSP110-depleted control
Briefly: Immunoprecipitation of HSP110:STAT3 complex in SW480 cells. It counts as cell-based. Particulars: SW480 shCtrl cells, 10 μM, 48 h. As for the experimental part:
FIG. 2A: Immunoprecipitation (IP) analysis of HSP110 protein (first line), STAT3 protein (second line) compared with total Immunoglobuline (Ig) and actin in SW480 cells treated with (from left to the right column) non-relevant antibody as control (called NT a Normal rabbit IgG (sc-2027) from Santa Cruz Biotechnologies), compound 52 (related to formula (III)), compound 33 (related to formula (II)), compound 51 (related to formula (IV)) and comparative compound 61 at a concentration of 10 μM during 48 h on shCtrl cells transfected with shRNA for shRNA control (referenced ShCtrl IP:STAT3 for the five first columns) or HSP110-silencing (sh110) (referenced sh110-IP:STAT3 for the two last columns) (from the left to the right columns). Immunoprecipitation analysis of HSP110 (first line), STAT3 (second line) compared with total Ig and actin (second blot in the right) is observed with shCtrl cells transfected with shRNA for shRNA control (shCtrl) or HSP110-silencing (sh110) (left to right columns).
FIG. 2B: Quantification of HSP110:STAT3 disruption in percentage considering the total amount of HSP110 protein normalized by the signal intensity of the Ig band of FIG. 1 panel A. (Ordinate: Percentage of STAT3:HSP110 protein interaction (scale 50)). The histogram measured quantification in percentage for ShCtrl IP: STAT3 treated with Ctrl, compounds 52, 33, 51 and comparative compound 61, and for shCtrl cells transfected with shRNA for shRNA control referenced ShCtrl IP: STAT3) or HSP110-silencing (sh110) (referenced sh110-IP: STAT3) (from the left to the right column)
(§1) Immunoprecipitation test were realized on human colorectal cancer cells (SW480 and HCT116 cell lines), using a control depleted in HSP110 called Sh110 and a not depleted cells in HSP110. STAT3 phosphorylation is then […] by compounds 33 and 52. Depletion of HSP110 in the negative control blocked the phosphorylation of STAT3 without affecting STAT3 overall levels (FIGS. 2 and 3).

In a further assay the test system is phosphorylated STAT3. The experiment in a line: P-STAT3 level in SW480 cells (immunoblot quantification). It counts as cell-based, human. Particulars: 10 μM, 48 h, normalized by actin. On the procedure: Results for SW480 cells treated during 48 h with non-relevant antibody (called NT), compound 52, compound 33, compound 51 and comparative compound 61 at 10 μM, and sh110 cells correspond to the third fourth, fifth, sixth and last columns from the left to the right.
FIG. 3B: Quantification of P-STAT3 level (in percentage) normalized by actin. […] (Ordinate: Percentage of P-STAT3 level (scale 50)
as §1
Background: A western blot detects proteins with antibodies after separation by electrophoresis.

In the next assay the test system is CT26 cells. The experiment in a line: Flow cytometric analysis of cell death (Annexin V / 7-AAD) in CT26 cells. It counts as cell-based, mouse. Particulars: 10 μM, 96 h. On the procedure: FIG. 5A: Flow cytometric analysis of cell death in CT26 cells treated with the compound 33 (at the bottom left), compound 52 (at the bottom middle), comparative compound 61 (at the bottom right) at 10 μM during 96 h compared with Control (DMSO) (at the top left), and Cisplatin (at the top middle and top right). Live cells were double negative for 7-AAD (Y axis) and Annexin V (X axis), early apoptotic cells were positive for Annexin V, late apoptotic cells were positive for Annexin V and 7-AAD ([…]) and dead cells were positive for 7-AAD only.
FIG. 5B: Quantification of cell viability (in percentage) from flow cytometry data are represented (Control, cells, compounds 33, 52 and 61 from the left to the right bars). (Abscissa Negativity of 7-AAD; Ordinate Negativity of Annexin V).
We then analyzed cell death in CT26 cells treated with 10 μM during 96 h of compounds 33, 52 and 61 by flow cytometry. Cells were also treated with a well know anti-cancer compound, called cisplatin. Cells were marked for 7-aminoactinomycin D, which exclusively bind on death cells and for Annexin V, a well-known indicators of early stage apoptosis, thanks to its ability to bind to phosphatidylserine.
For orientation: In flow cytometry, cells or beads pass a laser one at a time.

For another assay, the target named is T2, HSP110/Myd88 interaction (Homo sapiens, UniProt Q92598).
T2 construct: endogenous in cells
Briefly: Immunoprecipitation of HSP110/Myd88 in DLBCL cell line. Type of assay: cell-based. Particulars: IP Myd88, Western Blot. From the text: FIG. 10A: Immunoprecipitation (IP) analysis of HSP110 (first line), Myd88 (second line), heavy chains (third line) and actin (fourth line) in large B cell lymphoma cell lines (DLBCL).
Left part of FIG. 10A (“Inputs”): treated with (from left to right column of the left part of FIG. 10A) DMSO, compound 52 (5052), compound 33 (5033) and compound 61 (5061) (Negative control);
Middle part of FIG. 10A (“IP Myd88”): treated with (from left to right column of the middle part of FIG. 10A) DMSO, compound 52, compound 33 and compound 61 (as the negative control); Myd88 was immunoprecipitated with an antibody specifically directed against Myd88.
MyD88 was immuno-precipitated from the cell line which has been non-treated or treated with the HSP110 inhibitors.

Another assay addresses T3, human protein HSP110 (Homo sapiens, UniProt Q92598).
T3 construct: DNA coding the NBD-HSP110 (from human-HSP110)
The experiment in a line: HSP110 anti-aggregation function (luciferase substrate test). Type of assay: biochemical. Particulars: human HSP110 1.5 μM with firefly luciferase, 30 min at 42° C.; read-out: IC50 of HSP110 anti-aggregating activity. On the procedure:
Anti-aggregation function of HSP110 was evaluated as described by O H et al (The Journal of biological chemistry 274, 15712-15718 (1999)). The human protein HSP110 (obtained as described above) at a concentration of 1.5 μM was incubated with firefly luciferase (from Sigma—from Photinus pyralis) in reaction buffer and heated in water bath for 30 min at 42° C.
Compounds of the present invention were added in reaction buffer to achieve the indicated concentrations and the final DMSO concentration was held constant at 1%. The heated reaction was diluted 10 times into buffer containing 60% of rabbit reticulocytelysate and incubated for 2 hours. The luciferase activity was measured by diluting 5 times the solution in HEPES and adding 5 μL of the solution in luciferase substrate (50 μL of Luciferase Assay System—Promega E1501 diluted in HEPES). The bioluminescence was reading with Envision Perkin Elmer.
The percentage of activity (x) was calculated by using the following equation: x=[(A−B)/(C−B)]×100, where (A) is the luciferase luminescence in presence of compounds of the invention, (B) in absence of HSP110 and (C) in presence of DMSO (Control). The percentage of total folding HSP110-promoted (mean=36%) was calculated considering as 100% the luminescence of luciferase incubated with HSP110 without heat shock. The IC50 were calculated from the dose-response curves, which were fitted by GraphPrism (Equation: Y=100/(1+10^((Log IC50−X)*HillSlope)).

T3 sequence (Q92598 whole entry, looked up): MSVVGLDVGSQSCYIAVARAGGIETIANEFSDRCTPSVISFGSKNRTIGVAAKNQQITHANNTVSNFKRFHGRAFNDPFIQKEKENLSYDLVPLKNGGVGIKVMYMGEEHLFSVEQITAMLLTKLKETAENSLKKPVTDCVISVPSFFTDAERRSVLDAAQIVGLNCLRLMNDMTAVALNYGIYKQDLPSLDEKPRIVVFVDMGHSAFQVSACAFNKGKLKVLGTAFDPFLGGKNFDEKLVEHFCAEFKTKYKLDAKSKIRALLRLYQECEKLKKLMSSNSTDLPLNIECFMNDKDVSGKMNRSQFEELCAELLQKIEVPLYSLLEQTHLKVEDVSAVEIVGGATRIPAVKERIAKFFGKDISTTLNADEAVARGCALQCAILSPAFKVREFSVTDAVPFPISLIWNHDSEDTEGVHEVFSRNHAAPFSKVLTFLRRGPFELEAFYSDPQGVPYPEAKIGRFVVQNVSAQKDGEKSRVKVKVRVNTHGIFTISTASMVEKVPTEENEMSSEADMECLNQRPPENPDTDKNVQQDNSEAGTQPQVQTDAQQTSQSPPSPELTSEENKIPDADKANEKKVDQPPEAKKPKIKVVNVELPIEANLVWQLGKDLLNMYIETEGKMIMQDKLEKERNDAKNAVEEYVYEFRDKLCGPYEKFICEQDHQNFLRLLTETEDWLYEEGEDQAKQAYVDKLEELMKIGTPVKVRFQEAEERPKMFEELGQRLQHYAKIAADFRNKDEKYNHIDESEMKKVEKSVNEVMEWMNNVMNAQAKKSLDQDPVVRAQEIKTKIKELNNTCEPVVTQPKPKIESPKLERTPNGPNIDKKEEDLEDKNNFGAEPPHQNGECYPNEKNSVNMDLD
T2 sequence (Q92598 2-858 limits assumed): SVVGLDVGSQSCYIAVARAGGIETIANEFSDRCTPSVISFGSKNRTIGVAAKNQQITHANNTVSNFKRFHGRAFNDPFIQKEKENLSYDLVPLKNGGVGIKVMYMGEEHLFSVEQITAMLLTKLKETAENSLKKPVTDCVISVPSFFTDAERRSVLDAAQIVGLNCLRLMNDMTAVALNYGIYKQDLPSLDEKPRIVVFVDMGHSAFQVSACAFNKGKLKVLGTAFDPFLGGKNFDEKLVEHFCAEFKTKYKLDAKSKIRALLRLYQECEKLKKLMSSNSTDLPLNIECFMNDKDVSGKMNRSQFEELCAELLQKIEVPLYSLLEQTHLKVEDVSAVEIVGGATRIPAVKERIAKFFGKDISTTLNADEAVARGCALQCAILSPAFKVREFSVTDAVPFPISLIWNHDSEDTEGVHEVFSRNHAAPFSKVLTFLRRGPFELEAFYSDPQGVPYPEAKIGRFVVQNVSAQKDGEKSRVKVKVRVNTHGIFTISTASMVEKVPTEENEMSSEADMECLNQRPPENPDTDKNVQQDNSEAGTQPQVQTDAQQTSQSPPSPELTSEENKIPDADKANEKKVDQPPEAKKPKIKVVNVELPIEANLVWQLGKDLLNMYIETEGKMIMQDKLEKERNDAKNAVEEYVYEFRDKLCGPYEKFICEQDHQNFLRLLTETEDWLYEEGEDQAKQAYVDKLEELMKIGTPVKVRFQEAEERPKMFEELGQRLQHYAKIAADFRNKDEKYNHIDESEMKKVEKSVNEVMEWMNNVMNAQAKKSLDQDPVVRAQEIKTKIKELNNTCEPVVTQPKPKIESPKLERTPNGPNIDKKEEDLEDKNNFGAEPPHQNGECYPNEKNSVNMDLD
T1 sequence (Q92598 2-858 limits assumed, one chain of several): as the sequence (Q92598 2-858 limits assumed) above

For the molecule `COc1ccc(-c2ncc(-c3ncc(-c4cc(OC)c(OC)c(OC)c4)cc3/C=C/c3ccccc3)cc2C)cc1OC` [compound 33, (E)-6′-(3,4-Dimethoxyphenyl)-5′-methyl-3-styryl-5-(3,4,5-trimethoxyphenyl)-2,3′-bipyridine], on HSP110:STAT3 complex, the “percentage of interaction of STAT3:HSP110” value was found to be 20%. The P-STAT3 level with phosphorylated STAT3 is recorded as ~60%. The “cell death / apoptosis (Annexin V and 7-AAD marking)” value with CT26 cells is listed as “don't seem to be marked; also recorded: does not allow detecting significally apoptosis”. Besides, the HSP110/Myd88 interaction entry at HSP110/Myd88 interaction was “abrogate”. In addition, the concentration for half-maximal inhibition (IC50) – broadly, the concentration at which inhibition is half-maximal – at human protein HSP110 was found to be 58.3 ± 1.7 µM.

On to `COc1cc(-c2cnc(-c3cnc(-c4cc(OC)c(OC)c(OC)c4)c(C)c3)c(/C=C/c3ccccc3)c2)cc(OC)c1OC` [compound 52, (E)-5′-Methyl-3-styryl-5,6′-bis(3,4,5-trimethoxyphenyl)-2,3′-bipyridine], for which, at HSP110:STAT3 complex, the “percentage of interaction of STAT3:HSP110” value is 5%. In the assay on phosphorylated STAT3, the P-STAT3 level result is “about 20%”. Also, the “cell death / apoptosis (Annexin V and 7-AAD marking)” value with CT26 cells is given as “don't seem to be marked; also recorded: does not allow detecting significally apoptosis”. Moreover, the HSP110/Myd88 interaction entry at HSP110/Myd88 interaction is on record as “abrogate”. Also, on human protein HSP110, the IC50 was 86 ± 1.5 µM.
